Laboratory results reported in ChEMBL document CHEMBL5241132, “Design, synthesis and in vitro biological evaluation of 2-aminopyridine derivatives as novel PI3Kδ inhibitors for hematological cancer” (Bioorg Med Chem Lett, 2023).
Values belong to the compound of their own block, whether it stands above or below them.

How the values were obtained:
[1] = biological target: T1, Phosphatidylinositol 4,5-bisphosphate 3-kinase catalytic subunit delta isoform (Homo sapiens, UniProt O00329); assay: Inhibition of PI3Kdelta (unknown origin) by ADP Glo luminescent assay
T1 sequence (O00329 whole entry): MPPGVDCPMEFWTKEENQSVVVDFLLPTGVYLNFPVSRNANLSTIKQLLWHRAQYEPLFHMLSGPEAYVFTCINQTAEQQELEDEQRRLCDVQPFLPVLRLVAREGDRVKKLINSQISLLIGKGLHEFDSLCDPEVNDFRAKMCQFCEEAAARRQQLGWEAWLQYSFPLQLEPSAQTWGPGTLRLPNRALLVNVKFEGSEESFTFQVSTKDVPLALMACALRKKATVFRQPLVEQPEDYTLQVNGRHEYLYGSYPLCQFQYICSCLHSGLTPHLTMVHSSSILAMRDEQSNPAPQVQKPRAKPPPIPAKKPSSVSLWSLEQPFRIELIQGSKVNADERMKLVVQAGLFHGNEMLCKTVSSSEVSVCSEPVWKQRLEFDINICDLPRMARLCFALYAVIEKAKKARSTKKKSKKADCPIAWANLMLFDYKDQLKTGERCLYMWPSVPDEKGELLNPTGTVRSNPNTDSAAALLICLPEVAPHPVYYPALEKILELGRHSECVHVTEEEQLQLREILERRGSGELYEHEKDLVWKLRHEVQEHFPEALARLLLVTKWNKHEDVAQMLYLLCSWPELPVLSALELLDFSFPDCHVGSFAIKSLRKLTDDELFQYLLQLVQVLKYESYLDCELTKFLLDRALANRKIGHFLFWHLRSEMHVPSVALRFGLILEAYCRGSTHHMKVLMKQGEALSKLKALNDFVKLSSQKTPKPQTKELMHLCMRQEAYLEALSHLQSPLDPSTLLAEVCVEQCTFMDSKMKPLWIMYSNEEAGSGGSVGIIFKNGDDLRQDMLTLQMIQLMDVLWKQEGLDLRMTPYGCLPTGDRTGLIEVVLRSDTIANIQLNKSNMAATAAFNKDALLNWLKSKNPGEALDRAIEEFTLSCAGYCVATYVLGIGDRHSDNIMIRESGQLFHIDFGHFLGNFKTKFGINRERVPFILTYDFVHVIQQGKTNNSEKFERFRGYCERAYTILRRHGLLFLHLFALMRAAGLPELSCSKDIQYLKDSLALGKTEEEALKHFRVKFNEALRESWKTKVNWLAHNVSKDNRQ

[2] = Antiproliferative activity against human MOLM16 cells assessed as inhibition of cell growth; type: functional, cell-based, MOLM-16
MV4-11 [3] = assay: Antiproliferative activity against human MV4-11 cells assessed as inhibition of cell growth; type: functional, cell-based
KG-1 = assay: Antiproliferative activity against human KG-1 cells assessed as inhibition of cell growth; type: functional, cell-based
EOL1 = assay: Antiproliferative activity against human EOL1 cells assessed as inhibition of cell growth; type: functional, cell-based
HL-60 = assay: Antiproliferative activity against human HL-60 cells assessed as inhibition of cell growth; type: functional, cell-based
[4] = biological target: Phosphatidylinositol 4,5-bisphosphate 3-kinase catalytic subunit alpha isoform (Homo sapiens, UniProt P42336); assay: Inhibition of PI3Kalpha (unknown origin)
Phosphatidylinositol 4,5-bisphosphate 3-kinase catalytic subunit alpha isoform, sequence (P42336 whole entry, canonical isoform): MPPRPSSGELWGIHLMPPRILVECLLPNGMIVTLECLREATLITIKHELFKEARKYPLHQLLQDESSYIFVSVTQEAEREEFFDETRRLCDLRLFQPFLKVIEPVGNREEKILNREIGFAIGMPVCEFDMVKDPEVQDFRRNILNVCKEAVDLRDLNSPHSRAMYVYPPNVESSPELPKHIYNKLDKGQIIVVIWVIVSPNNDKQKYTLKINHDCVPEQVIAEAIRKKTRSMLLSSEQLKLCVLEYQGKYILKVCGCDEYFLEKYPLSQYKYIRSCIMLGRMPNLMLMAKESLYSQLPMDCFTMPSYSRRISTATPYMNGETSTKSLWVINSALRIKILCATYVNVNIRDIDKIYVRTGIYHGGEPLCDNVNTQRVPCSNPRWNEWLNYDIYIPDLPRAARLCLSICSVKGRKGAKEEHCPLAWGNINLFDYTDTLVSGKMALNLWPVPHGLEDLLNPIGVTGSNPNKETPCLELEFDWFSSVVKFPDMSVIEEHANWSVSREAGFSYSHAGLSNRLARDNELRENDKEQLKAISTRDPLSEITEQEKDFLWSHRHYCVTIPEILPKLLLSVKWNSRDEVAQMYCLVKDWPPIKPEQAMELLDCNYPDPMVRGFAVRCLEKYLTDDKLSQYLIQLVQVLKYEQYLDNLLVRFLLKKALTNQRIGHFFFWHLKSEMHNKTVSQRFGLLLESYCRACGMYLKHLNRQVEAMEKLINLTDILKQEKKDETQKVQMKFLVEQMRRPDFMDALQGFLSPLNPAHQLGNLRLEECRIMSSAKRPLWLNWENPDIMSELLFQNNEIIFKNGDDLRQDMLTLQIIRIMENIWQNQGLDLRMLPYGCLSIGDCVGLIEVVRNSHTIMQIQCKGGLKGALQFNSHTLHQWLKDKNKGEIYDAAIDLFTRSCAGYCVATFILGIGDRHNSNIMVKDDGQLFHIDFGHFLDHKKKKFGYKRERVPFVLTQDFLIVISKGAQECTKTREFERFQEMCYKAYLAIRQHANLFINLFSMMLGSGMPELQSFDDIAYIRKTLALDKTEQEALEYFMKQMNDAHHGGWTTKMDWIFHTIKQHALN

[5] = biological target: Phosphatidylinositol 4,5-bisphosphate 3-kinase catalytic subunit beta isoform (Homo sapiens, UniProt P42338); assay: Inhibition of PI3Kbeta (unknown origin)
Phosphatidylinositol 4,5-bisphosphate 3-kinase catalytic subunit beta isoform, sequence (P42338 whole entry, canonical isoform): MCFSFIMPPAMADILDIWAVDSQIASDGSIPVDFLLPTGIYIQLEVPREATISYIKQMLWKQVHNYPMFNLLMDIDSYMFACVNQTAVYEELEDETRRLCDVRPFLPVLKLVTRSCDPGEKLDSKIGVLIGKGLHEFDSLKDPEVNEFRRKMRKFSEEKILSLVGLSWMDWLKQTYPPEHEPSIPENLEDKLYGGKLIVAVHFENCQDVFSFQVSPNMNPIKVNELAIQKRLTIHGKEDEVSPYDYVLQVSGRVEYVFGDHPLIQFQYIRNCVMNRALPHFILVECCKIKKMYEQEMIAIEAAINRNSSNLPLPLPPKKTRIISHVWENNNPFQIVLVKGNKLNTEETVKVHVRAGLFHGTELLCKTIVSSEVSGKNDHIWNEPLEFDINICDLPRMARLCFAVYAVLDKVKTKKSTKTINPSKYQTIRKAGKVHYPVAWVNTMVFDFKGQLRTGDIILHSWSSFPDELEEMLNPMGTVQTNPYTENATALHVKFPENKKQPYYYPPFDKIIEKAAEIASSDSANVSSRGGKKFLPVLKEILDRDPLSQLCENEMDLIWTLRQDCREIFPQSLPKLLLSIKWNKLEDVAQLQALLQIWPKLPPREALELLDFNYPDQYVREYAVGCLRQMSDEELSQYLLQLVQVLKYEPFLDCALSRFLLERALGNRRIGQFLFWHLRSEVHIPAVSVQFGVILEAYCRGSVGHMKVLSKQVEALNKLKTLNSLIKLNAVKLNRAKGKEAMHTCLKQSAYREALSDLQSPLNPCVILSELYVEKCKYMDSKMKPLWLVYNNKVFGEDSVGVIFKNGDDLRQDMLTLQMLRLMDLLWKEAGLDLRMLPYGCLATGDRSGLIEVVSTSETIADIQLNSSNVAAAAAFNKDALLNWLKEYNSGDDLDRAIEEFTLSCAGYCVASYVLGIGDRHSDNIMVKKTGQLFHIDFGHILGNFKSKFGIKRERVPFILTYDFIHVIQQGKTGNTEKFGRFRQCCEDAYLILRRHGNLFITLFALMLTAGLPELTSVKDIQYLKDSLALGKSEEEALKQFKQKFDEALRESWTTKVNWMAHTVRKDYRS

[6] = biological target: Phosphatidylinositol 4,5-bisphosphate 3-kinase catalytic subunit gamma isoform (Homo sapiens, UniProt P48736); assay: Inhibition of PI3Kgamma (unknown origin)
Phosphatidylinositol 4,5-bisphosphate 3-kinase catalytic subunit gamma isoform, sequence (P48736 whole entry, canonical isoform): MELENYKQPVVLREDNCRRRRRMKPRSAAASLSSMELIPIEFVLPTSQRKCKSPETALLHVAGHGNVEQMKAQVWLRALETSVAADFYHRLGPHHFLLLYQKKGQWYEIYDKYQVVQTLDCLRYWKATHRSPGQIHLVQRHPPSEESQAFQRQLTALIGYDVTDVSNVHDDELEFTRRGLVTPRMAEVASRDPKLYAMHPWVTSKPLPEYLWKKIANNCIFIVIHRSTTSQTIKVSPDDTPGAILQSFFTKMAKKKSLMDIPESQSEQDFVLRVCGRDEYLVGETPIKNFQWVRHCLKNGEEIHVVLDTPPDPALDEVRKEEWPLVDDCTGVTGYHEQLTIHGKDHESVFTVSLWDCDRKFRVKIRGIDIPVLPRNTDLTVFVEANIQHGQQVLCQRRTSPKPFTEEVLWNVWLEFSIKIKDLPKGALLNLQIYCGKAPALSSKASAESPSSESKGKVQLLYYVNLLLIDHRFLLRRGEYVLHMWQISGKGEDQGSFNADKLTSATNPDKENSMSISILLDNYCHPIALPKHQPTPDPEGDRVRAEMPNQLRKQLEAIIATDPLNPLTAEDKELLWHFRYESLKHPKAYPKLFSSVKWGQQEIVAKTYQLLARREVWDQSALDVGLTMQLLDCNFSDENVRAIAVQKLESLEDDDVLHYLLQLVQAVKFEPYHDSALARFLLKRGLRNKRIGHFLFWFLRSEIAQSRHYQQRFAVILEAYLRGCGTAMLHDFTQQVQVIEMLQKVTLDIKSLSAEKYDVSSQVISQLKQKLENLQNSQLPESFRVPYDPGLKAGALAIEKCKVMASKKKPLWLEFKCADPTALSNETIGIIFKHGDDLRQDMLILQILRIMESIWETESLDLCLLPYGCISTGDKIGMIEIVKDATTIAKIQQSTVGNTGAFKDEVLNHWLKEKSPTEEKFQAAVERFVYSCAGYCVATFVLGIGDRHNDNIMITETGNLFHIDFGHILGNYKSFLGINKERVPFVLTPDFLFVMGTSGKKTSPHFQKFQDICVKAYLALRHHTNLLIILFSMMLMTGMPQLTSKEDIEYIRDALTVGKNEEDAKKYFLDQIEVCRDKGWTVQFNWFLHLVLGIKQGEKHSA

Homo sapiens [7] = species: Homo sapiens; assay: Selectivity index, ratio of IC50 for inhibition of PI3Kalpha (unknown origin) to IC50 for inhibition of PI3Kdelta (unknown origin) by ADP Glo luminescent assay
Homo sapiens [8] = species: Homo sapiens; assay: Selectivity index, ratio of IC50 for inhibition of PI3Kbeta (unknown origin) to IC50 for inhibition of PI3Kdelta (unknown origin) by ADP Glo luminescent assay
Homo sapiens [9] = species: Homo sapiens; assay: Selectivity index, ratio of IC50 for inhibition of PI3Kgamma (unknown origin) to IC50 for inhibition of PI3Kdelta (unknown origin) by ADP Glo luminescent assay
MV4-11 [10] = assay: Induction of apoptosis in human MV4-11 cells assessed as viable cells at 1 uM incubated for 48 hrs by Annexin V/PI staining based flow cytometric analysis (reference value: […]); type: functional; settings: read-out: Activity
MV4-11 [11] = assay: Induction of apoptosis in human MV4-11 cells assessed as early apoptotic cells at 1 uM incubated for 48 hrs by Annexin V/PI staining based flow cytometric analysis (reference value: 1.57%); type: functional
MV4-11 [12] = assay: Induction of apoptosis in human MV4-11 cells assessed as late apoptotic cells at 1 uM incubated for 48 hrs by Annexin V/PI staining based flow cytometric analysis (reference value: 2.82%); type: functional
MV4-11 [13] = assay: Induction of apoptosis in human MV4-11 cells assessed as necrotic cells at 1 uM incubated for 48 hrs by Annexin V/PI staining based flow cytometric analysis (reference value: 0.060%); type: functional
MV4-11 [14] = assay: Induction of apoptosis in human MV4-11 cells assessed as viable cells at 3 uM incubated for 48 hrs by Annexin V/PI staining based flow cytometric analysis (reference value: […]); type: functional; settings: read-out: Activity
MV4-11 [15] = assay: Induction of apoptosis in human MV4-11 cells assessed as early apoptotic cells at 3 uM incubated for 48 hrs by Annexin V/PI staining based flow cytometric analysis (reference value: 1.57%); type: functional
MV4-11 [16] = assay: Induction of apoptosis in human MV4-11 cells assessed as late apoptotic cells at 3 uM incubated for 48 hrs by Annexin V/PI staining based flow cytometric analysis (reference value: 2.82%); type: functional
MV4-11 [17] = assay: Induction of apoptosis in human MV4-11 cells assessed as necrotic cells at 3 uM incubated for 48 hrs by Annexin V/PI staining based flow cytometric analysis (reference value: 0.060%); type: functional
MV4-11 [18] = assay: Induction of apoptosis in human MV4-11 cells assessed as viable cells at 5 uM incubated for 48 hrs by Annexin V/PI staining based flow cytometric analysis (reference value: […]); type: functional; settings: read-out: Activity
MV4-11 [19] = assay: Induction of apoptosis in human MV4-11 cells assessed as early apoptotic cells at 5 uM incubated for 48 hrs by Annexin V/PI staining based flow cytometric analysis (reference value: 1.57%); type: functional
MV4-11 [20] = assay: Induction of apoptosis in human MV4-11 cells assessed as late apoptotic cells at 5 uM incubated for 48 hrs by Annexin V/PI staining based flow cytometric analysis (reference value: 2.82%); type: functional
MV4-11 [21] = assay: Induction of apoptosis in human MV4-11 cells assessed as necrotic cells at 5 uM incubated for 48 hrs by Annexin V/PI staining based flow cytometric analysis (reference value: 0.060%); type: functional
MV4-11 [22] = assay: Induction of apoptosis in human MV4-11 cells assessed as viable cells at 10 uM incubated for 48 hrs by Annexin V/PI staining based flow cytometric analysis (reference value: […]); type: functional; settings: read-out: Activity
MV4-11 [23] = assay: Induction of apoptosis in human MV4-11 cells assessed as early apoptotic cells at 10 uM incubated for 48 hrs by Annexin V/PI staining based flow cytometric analysis (reference value: 1.57%); type: functional
MV4-11 [24] = assay: Induction of apoptosis in human MV4-11 cells assessed as late apoptotic cells at 10 uM incubated for 48 hrs by Annexin V/PI staining based flow cytometric analysis (reference value: 2.82%); type: functional
MV4-11 [25] = assay: Induction of apoptosis in human MV4-11 cells assessed as necrotic cells at 10 uM incubated for 48 hrs by Annexin V/PI staining based flow cytometric analysis (reference value: 0.060%); type: functional
MV4-11 [26] = assay: Induction of apoptosis in human MV4-11 cells assessed as total apoptotic cells at 1 to 10 uM incubated for 48 hrs by Annexin V/PI staining based flow cytometric analysis (reference value: 4.39%); type: functional; settings: dose 1-10 µM
MV4-11 [27] = assay: Cell cycle arrest in human MV4-11 cells assessed as accumulation of cells at G2/M phase incubated for 24 hrs by flow cytometric analysis; type: functional, cell-based; settings: dose 1-10 µM
[28] = biological target: Serine/threonine-protein kinase AKT (Homo sapiens) (UniProt P31751+Q9Y243+P31749); assay: Inhibition of AKT phosphorylation in human MV4-11 cells incubated for 4 hrs by Western blot analysis; type: cell-based; settings: dose 1-10 µM
Serine/threonine-protein kinase AKT (Homo sapiens), sequence (P31749 whole entry, looked up): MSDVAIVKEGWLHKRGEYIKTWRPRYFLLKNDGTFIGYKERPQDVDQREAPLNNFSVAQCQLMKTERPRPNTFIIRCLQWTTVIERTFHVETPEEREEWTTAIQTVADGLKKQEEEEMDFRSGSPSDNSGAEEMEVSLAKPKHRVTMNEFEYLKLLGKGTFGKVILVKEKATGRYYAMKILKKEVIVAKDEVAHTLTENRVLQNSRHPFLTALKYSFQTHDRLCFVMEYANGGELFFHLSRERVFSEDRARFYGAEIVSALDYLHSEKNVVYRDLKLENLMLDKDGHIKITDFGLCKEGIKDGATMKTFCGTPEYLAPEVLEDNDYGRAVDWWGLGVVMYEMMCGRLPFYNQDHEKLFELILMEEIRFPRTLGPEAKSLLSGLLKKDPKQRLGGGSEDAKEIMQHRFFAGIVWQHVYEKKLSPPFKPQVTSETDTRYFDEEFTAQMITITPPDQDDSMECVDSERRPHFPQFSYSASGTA
Serine/threonine-protein kinase AKT (Homo sapiens), sequence (P31751 whole entry, looked up): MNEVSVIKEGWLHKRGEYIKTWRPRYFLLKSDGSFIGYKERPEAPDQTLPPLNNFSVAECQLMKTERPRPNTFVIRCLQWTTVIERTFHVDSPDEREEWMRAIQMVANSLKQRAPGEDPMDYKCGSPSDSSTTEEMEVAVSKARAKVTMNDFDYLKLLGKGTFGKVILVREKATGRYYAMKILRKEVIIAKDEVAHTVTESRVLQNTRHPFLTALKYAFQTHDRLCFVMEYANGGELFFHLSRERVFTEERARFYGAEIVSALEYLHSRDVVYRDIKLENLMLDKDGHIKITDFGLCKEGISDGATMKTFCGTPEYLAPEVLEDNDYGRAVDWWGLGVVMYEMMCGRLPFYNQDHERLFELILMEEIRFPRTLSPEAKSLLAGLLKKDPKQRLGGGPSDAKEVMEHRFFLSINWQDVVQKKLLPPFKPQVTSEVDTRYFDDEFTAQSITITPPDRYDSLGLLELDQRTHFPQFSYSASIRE
Serine/threonine-protein kinase AKT (Homo sapiens), sequence (Q9Y243 whole entry, looked up): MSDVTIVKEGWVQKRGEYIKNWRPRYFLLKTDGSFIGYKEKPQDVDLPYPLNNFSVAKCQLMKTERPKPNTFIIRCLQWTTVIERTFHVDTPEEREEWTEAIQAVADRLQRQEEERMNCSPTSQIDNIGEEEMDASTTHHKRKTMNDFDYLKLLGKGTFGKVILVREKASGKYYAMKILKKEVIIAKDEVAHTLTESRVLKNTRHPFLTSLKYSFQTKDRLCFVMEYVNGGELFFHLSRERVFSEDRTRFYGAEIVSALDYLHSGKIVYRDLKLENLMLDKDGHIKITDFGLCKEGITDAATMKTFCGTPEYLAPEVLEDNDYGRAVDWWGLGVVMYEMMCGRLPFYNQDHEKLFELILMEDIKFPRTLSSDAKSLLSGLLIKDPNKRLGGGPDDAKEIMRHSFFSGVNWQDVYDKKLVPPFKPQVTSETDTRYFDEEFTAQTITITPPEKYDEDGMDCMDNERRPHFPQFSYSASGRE

IC50 [1]: 11300 nM
SMILES: CN(c1cc(-c2ccc(N)nc2)cnc1Cl)S(=O)(=O)c1ccccc1

IC50 [1]: 41 nM
SMILES: Cc1ccc(S(=O)(=O)Nc2cc(-c3ccc(N)nc3)cnc2Cl)cc1

IC50 [1]: 32500 nM
SMILES: Nc1ccc(-c2cnc(Cl)c(N)c2)cn1

IC50 [1]: 52 nM
SMILES: Nc1ccc(-c2cnc(Cl)c(NS(=O)(=O)c3ccccc3)c2)cn1

IC50 [1]: > 50000 nM
SMILES: N#Cc1cc(-c2ccc(N)nc2)cnc1Cl

IC50 [1]: > 50000 nM
SMILES: Nc1cncc(-c2ccc(N)nc2)c1

IC50 [1]: 33500 nM
SMILES: N#Cc1ncc(-c2ccc(N)nc2)cc1N

IC50 [1]: > 50000 nM
SMILES: Nc1ccc(-c2cnc(F)c(N)c2)cn1

IC50 [1]: 48 nM
SMILES: CC(=O)Nc1ccc(-c2cnc(Cl)c(NS(=O)(=O)c3ccccc3)c2)cn1

IC50 (MV4-11 [3]): 4300 nM
IC50 (HL-60): 480 nM
SMILES: CC[C@H](Nc1ncnc2[nH]cnc12)c1nc2cccc(F)c2c(=O)n1-c1ccccc1 [IDELALISIB]
IC50 [2]: 13300 nM
IC50 (KG-1): 15200 nM
IC50 (EOL1): > 50000 nM

IC50 [1]: > 50000 nM
SMILES: Nc1ccc(-c2cnc(N)c(N)c2)cn1

IC50 (MV4-11 [3]): 54 nM
IC50 (HL-60): 89 nM
SMILES: Oc1cccc(-c2nc(N3CCOCC3)c3oc4ncccc4c3n2)c1 [PI-103]
IC50 [2]: 58 nM
IC50 (KG-1): 88 nM
IC50 (EOL1): 1600 nM

IC50 [1]: 98 nM
SMILES: Nc1ccc(-c2cnc(Cl)c(NS(=O)(=O)c3ccc(F)cc3)c2)cn1

IC50 [1]: 46 nM
SMILES: CCCC(=O)Nc1ccc(-c2cnc(Cl)c(NS(=O)(=O)c3ccccc3)c2)cn1

IC50 [1]: 46600 nM
SMILES: Nc1ccc(-c2cnc(Cl)c(C(F)(F)F)c2)cn1

IC50 [1]: 30 nM
IC50 [4]: 288 nM
IC50 [5]: 295 nM
IC50 [6]: 243 nM
IC50 (MV4-11 [3]): 3700 nM
IC50 (HL-60): 8700 nM
Ratio IC50 (Homo sapiens [7]): 8
Ratio IC50 (Homo sapiens [8]): 8
Ratio IC50 (Homo sapiens [9]): 8
inhibition [28]: Dose-Dependent Effect
SMILES: COCCNC(=O)Nc1ccc(-c2cnc(Cl)c(NS(=O)(=O)c3ccccc3)c2)cn1
IC50 [2]: 2600 nM
IC50 (KG-1): 18900 nM
IC50 (EOL1): 15900 nM
viability at 1 µM (MV4-11 [10]): 96%
Activity (MV4-11 [11]): 1.2%
Activity (MV4-11 [12]): 2.65%
Activity (MV4-11 [13]): 0.1%
viability at 3 µM (MV4-11 [14]): 94%
Activity (MV4-11 [15]): 1.47%
Activity (MV4-11 [16]): 4.18%
Activity (MV4-11 [17]): 0.335%
viability at 5 µM (MV4-11 [18]): 85.5%
Activity (MV4-11 [19]): 1.92%
Activity (MV4-11 [20]): 10.9%
Activity (MV4-11 [21]): 1.69%
viability at 10 µM (MV4-11 [22]): 57.4%
Activity (MV4-11 [23]): 3.21%
Activity (MV4-11 [24]): 28.1%
Activity (MV4-11 [25]): 11.3%
Activity (MV4-11 [26]): 3.85%
Activity (MV4-11 [27]): Dose-Dependent Effect

IC50 [1]: > 50000 nM
SMILES: Cc1ncc(-c2ccc(N)nc2)cc1N

IC50 [1]: > 50000 nM
SMILES: CCOc1ncc(-c2ccc(N)nc2)cc1N

IC50 [1]: 31 nM
SMILES: CC(C)(C)c1ccc(S(=O)(=O)Nc2cc(-c3ccc(N)nc3)cnc2Cl)cc1

IC50 [1]: > 50000 nM
SMILES: Nc1ccc(-c2cnc(Cl)c(F)c2)cn1

IC50 [1]: 104 nM
IC50 [4]: 412 nM
IC50 [5]: 235 nM
IC50 [6]: 180 nM
SMILES: CCNC(=O)Nc1ccc(-c2cnc(Cl)c(NS(=O)(=O)c3ccccc3)c2)cn1

IC50 [1]: 47500 nM
SMILES: Nc1ccc(-c2ccc(Cl)nc2)cn1

IC50 [1]: 67 nM
SMILES: Nc1ccc(-c2cnc(Cl)c(NS(=O)(=O)c3ccc(F)cc3F)c2)cn1

IC50 [1]: 49 nM
SMILES: CCC(=O)Nc1ccc(-c2cnc(Cl)c(NS(=O)(=O)c3ccccc3)c2)cn1

IC50 [1]: > 50000 nM
SMILES: COc1ncc(-c2ccc(N)nc2)cc1N
